This is an account of results in patent US20250222146A1, “Radiopharmaceuticals Targeting Somatostatin Receptor 2 and Uses Thereof” (RayzeBio, Inc., priority 2023, published 2025).

Structures are written as SMILES. Where two headings read alike, the source gives them in different places. Numbered stars: 1 amine (or outer) side, 2 acyl side, 3 side chain; on linkers, the order of the positions; unused ones are H or OH. Square brackets hold non-standard residues; d marks the D form. Peptide text beside a SMILES is read from it. * marks the point of attachment. DOTA(Lu)NH(CH2)6NHCOCH2 = O=C(CN1CCN2CCN3CCN(CC1)CC(=O)[O][Lu]([O]C(=O)C2)[O]C(=O)C3)NCCCCCCNC(=O)C*; DOTA(Lu) = O=C1CN2CCN3CCN(CC(=O)*)CCN(CC2)CC(=O)[O][Lu]([O]1)[O]C(=O)C3; Ala(piperidin-4-yl) = O=C([C@H](CC1CCN([*:3])CC1)N[*:1])[*:2]; dTrp(βS-Me) = C[C@@H](c1c[nH]c2ccccc12)[C@@H](N)C(=O)O; dTrp(5-Cl) = N[C@H](Cc1c[nH]c2ccc(Cl)cc12)C(=O)O; Ala(piperazin-1-yl) = N[C@@H](CN1CCNCC1)C(=O)O; Phe(3R-Me) = C[C@H](c1ccccc1)[C@H](N)C(=O)O; Lys(Me2) = CN(C)CCCC[C@H](N)C(=O)O; NMehLys = CN[C@@H](CCCCCN)C(=O)O; 3Pal = N[C@@H](Cc1cccnc1)C(=O)O; 4Pal = N[C@@H](Cc1ccncc1)C(=O)O; Gly(cBu) = N[C@H](C(=O)O)C1CCC1; Lys(Me) = CNCCCC[C@H](N)C(=O)O; NMehCys = CN[C@@H](CCS)C(=O)O; NMeK = CN[C@@H](CCCCN)C(=O)O; X1 = C1NCC1*

The target of one data set is SSTR2 (Homo sapiens, UniProt P30874). The data set is described as follows: SSTR binding affinity by radioligand binding competition assay ([125I]-Tyr11-Somatostatin, membrane extracts). The note with it: radioligand competition, [125I]-Tyr11-Somatostatin 0.1 nM, membrane extracts, Ki from IC50 by Cheng Prusoff.
Data set [1] can be described thus: Peptide conjugate biodistribution measured by tissue PK (ICP-MS, % ID/g in kidney tissue at 2 h). The data set is classed as in vivo. The following applies: 2 h time point, mouse. The protocol: Macrocyclic peptides and conjugates described herein were tested for tissue distribution by measuring concentrations in tissues by MS using in vivo animal models. Peptide metal chelates were dosed to animals and tissues were collected at specific time points based off the peptide PK profile. The samples were then analyzed by MS and the results reported as % ID/g (% injected dose/gram). Radiopharmaceutical conjugates of the present disclosure have improved tissue distribution for radiopharmaceutical therapeutics.
Peptide metal chelate doses were suspended in phosphate-buffered saline (PBS) containing 0.1% Tween 80. An injection volume of 100 μL per mouse was used, and blood and tissue samples were collected, weighed, and stored frozen at-80° C. until analysis. Tissue samples were digested with concentrated nitric acid in a microwave digestion apparatus. The sample digest was diluted with internal standard and analyzed using inductively coupled plasma mass spectrometry (ICP-MS). ICP-MS is an elemental analysis technique used to measure elements by using argon plasma to convert the sample into ions that are then measured using the mass spectrometer. Calibration standards were used for quantification of element(s) of interest by constructing a multipoint standard curve covering the range of analyte concentrations anticipated in the samples (typical range is 500 ppt to 0.1 ppt). A single quadrupole instrument (iCAP RQ, Thermo Fisher) ICP-MS was coupled with a Teledyne CETAC autosampler and used for the sample analysis.
The % ID/g of conjugate in kidney tissue at the 2-hour time point (2 h) was quantified for various conjugates, and the results are shown in Table 10. Lower kidney tissue % ID/g values indicate lower distribution to the kidney after administration of the conjugate.

Sequence of SSTR2 (P30874 whole entry): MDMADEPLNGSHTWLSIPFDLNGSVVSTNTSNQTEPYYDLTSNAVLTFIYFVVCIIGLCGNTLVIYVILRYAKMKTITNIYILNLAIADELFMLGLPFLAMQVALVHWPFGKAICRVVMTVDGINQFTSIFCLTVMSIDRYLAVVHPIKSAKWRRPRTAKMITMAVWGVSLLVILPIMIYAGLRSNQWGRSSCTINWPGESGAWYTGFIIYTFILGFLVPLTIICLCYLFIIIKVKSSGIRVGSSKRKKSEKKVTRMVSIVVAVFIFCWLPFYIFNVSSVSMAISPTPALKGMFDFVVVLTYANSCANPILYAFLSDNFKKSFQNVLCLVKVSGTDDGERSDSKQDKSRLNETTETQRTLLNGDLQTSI

In the case of `C[C@@H](O)[C@@H]1NC(=O)[C@H](COC2CNC2)NC(=O)[C@@H](Cc2c[nH]c3ccccc23)NC(=O)[C@H](Cc2ccc(O)cc2)NC(=O)[C@H](CCSCC(=O)NCCCCCCNC(=O)CN2CCN3CCN4CCN(CC2)CC(=O)[O][Lu]([O]C(=O)C3)[O]C(=O)C4)N(C)C(=O)[C@H](Cc2ccccc2)NC1=O` [RB-0006013] (cyclo(F[NMehCys](DOTA(Lu)NH(CH2)6NHCOCH2)Y[dW]S(X1)T)), the Ki at SSTR2 (read-out: SSTR2 Ki) was in the range of 1 to 3.33 nM. In addition, the tissue uptake at 2 h in data set [1] was 3 %ID/g. `CNCCCC[C@@H]1NC(=O)[C@@H](Cc2c[nH]c3ccccc23)NC(=O)[C@H](Cc2ccc(O)cc2)NC(=O)[C@H](CCSCC(=O)NCCCCCCNC(=O)CN2CCN3CCN4CCN(CC2)CC(=O)[O][Lu]([O]C(=O)C3)[O]C(=O)C4)N(C)C(=O)[C@H](Cc2ccccc2)NC(=O)[C@H]([C@@H](C)O)NC1=O` [RB-0005799] (cyclo(F[NMehCys](DOTA(Lu)NH(CH2)6NHCOCH2)Y[dW][Lys(Me)]T)): on SSTR2 (read-out: SSTR2 Ki), the Ki is under 1 nM. The tissue uptake at 2 h in data set [1] was 2.3 %ID/g. In the case of `C[C@@H](O)[C@@H]1NC(=O)[C@H](CCCCN(C)C)NC(=O)[C@@H](Cc2c[nH]c3ccccc23)NC(=O)[C@H](Cc2ccc(O)cc2)NC(=O)[C@H](CCSCC(=O)NCCCCCCNC(=O)CN2CCN3CCN4CCN(CC2)CC(=O)[O][Lu]([O]C(=O)C3)[O]C(=O)C4)N(C)C(=O)[C@H](Cc2ccccc2)NC1=O` [RB-0005801] (cyclo(F[NMehCys](DOTA(Lu)NH(CH2)6NHCOCH2)Y[dW][Lys(Me2)]T)), the inhibitory constant (Ki) on SSTR2 (read-out: SSTR2 Ki) was in the range of 1 to 3.33 nM. The compound further returned a tissue uptake at 2 h in data set [1] of 2 %ID/g. `C[C@@H](O)[C@@H]1NC(=O)[C@H](CC2CCNCC2)NC(=O)[C@@H]([C@@H](C)c2c[nH]c3ccccc23)NC(=O)[C@H](Cc2ccc(O)cc2)NC(=O)[C@H](CCCCNC(=O)CN2CCN3CCN4CCN(CC2)CC(=O)[O][Lu]([O]C(=O)C3)[O]C(=O)C4)N(C)C(=O)[C@H](Cc2ccccc2)NC1=O` [RB-0006176] (cyclo(F[NMeK](DOTA(Lu))Y[dTrp(βS-Me)][Ala(piperidin-4-yl)]T)) registered a tissue uptake at 2 h in data set [1] of 1.6 %ID/g. For `C[C@@H](O)[C@@H]1NC(=O)[C@H](CN2CCNCC2)NC(=O)[C@@H]([C@@H](C)c2c[nH]c3ccccc23)NC(=O)[C@H](Cc2ccc(O)cc2)NC(=O)[C@H](CCSCC(=O)NCCCCCCNC(=O)CN2CCN3CCN4CCN(CC2)CC(=O)[O][Lu]([O]C(=O)C3)[O]C(=O)C4)N(C)C(=O)[C@H](Cc2ccccc2)NC1=O` [RB-0006072] (cyclo(F[NMehCys](DOTA(Lu)NH(CH2)6NHCOCH2)Y[dTrp(βS-Me)][Ala(piperazin-1-yl)]T)), the inhibitory constant (Ki) on SSTR2 (read-out: SSTR2 Ki) was under 1 nM. The compound further came in with a tissue uptake at 2 h in data set [1] of 2.7 %ID/g. The matching figures for `C[C@@H](O)[C@@H]1NC(=O)[C@H](CC2CCNCC2)NC(=O)[C@@H]([C@@H](C)c2c[nH]c3ccccc23)NC(=O)[C@H](Cc2ccc(O)cc2)NC(=O)[C@H](CCSCC(=O)NCCCCCCNC(=O)CN2CCN3CCN4CCN(CC2)CC(=O)[O][Lu]([O]C(=O)C3)[O]C(=O)C4)N(C)C(=O)[C@H](Cc2ccccc2)NC1=O` [RB-0005760] (cyclo(F[NMehCys](DOTA(Lu)NH(CH2)6NHCOCH2)Y[dTrp(βS-Me)][Ala(piperidin-4-yl)]T)): under 1 nM and 2.7 %ID/g. Take `C[C@@H](O)[C@@H]1NC(=O)[C@H](CN2CCNCC2)NC(=O)[C@@H](Cc2c[nH]c3ccccc23)NC(=O)[C@H](Cc2ccc(O)cc2)NC(=O)[C@H](CCSCC(=O)NCCCCCCNC(=O)CN2CCN3CCN4CCN(CC2)CC(=O)[O][Lu]([O]C(=O)C3)[O]C(=O)C4)N(C)C(=O)[C@H](Cc2ccccc2)NC1=O` [RB-0005805] (cyclo(F[NMehCys](DOTA(Lu)NH(CH2)6NHCOCH2)Y[dW][Ala(piperazin-1-yl)]T)): the Ki at SSTR2 (SSTR2 Ki) was under 1 nM. This compound also yielded a tissue uptake at 2 h in data set [1] of 2.5 %ID/g. For `C[C@@H](O)[C@@H]1NC(=O)[C@H](CCCCN)NC(=O)[C@H](Cc2c[nH]c3ccccc23)NC(=O)[C@H](Cc2ccc(O)cc2)NC(=O)[C@H](CCSCC(=O)NCCOCCOCCOCCNC(=O)CN2CCN3CCN4CCN(CC2)CC(=O)[O][Lu]([O]C(=O)C3)[O]C(=O)C4)N(C)C(=O)[C@H](Cc2ccccc2)NC1=O` [RB-0005502], the Ki on SSTR2 (read-out: SSTR2 Ki) is under 1 nM. For the same compound, the tissue uptake at 2 h in data set [1] amounted to 9.4 %ID/g. In the case of `C[C@H](c1ccccc1)[C@@H]1NC(=O)[C@H](CCSCC(=O)NCCCCCCNC(=O)CN2CCN3CCN4CCN(CC2)CC(=O)[O][Lu]([O]C(=O)C3)[O]C(=O)C4)N(C)C(=O)[C@H](Cc2ccccc2)NC(=O)[C@H]([C@@H](C)O)NC(=O)[C@H](CCCCN)NC(=O)[C@@H](Cc2c[nH]c3ccccc23)NC1=O` [RB-0003137] (cyclo(F[NMehCys](DOTA(Lu)NH(CH2)6NHCOCH2)[Phe(3R-Me)][dW]KT)), the Ki on SSTR2 (read-out: SSTR2 Ki) was under 1 nM. `C[C@@H](O)[C@@H]1NC(=O)[C@H](CCCCN)NC(=O)[C@@H](Cc2c[nH]c3ccccc23)NC(=O)[C@H](Cc2ccc(O)cc2)NC(=O)[C@H](CCCCNC(=O)CCCCCCCNC(=O)CN2CCN3CCN4CCN(CC2)CC(=O)[O][Lu]([O]C(=O)C3)[O]C(=O)C4)N(C)C(=O)[C@H](Cc2ccccc2)NC1=O` [RB-0003296] gave a Ki on SSTR2 (SSTR2 Ki) of 1 to 3.33 nM. As to `C[C@@H](O)[C@@H]1NC(=O)[C@H](CC2CCNCC2)NC(=O)[C@@H](Cc2c[nH]c3ccc(Cl)cc23)NC(=O)[C@H](Cc2ccc(O)cc2)NC(=O)[C@H](CCSCC(=O)NCCCCCCNC(=O)CN2CCN3CCN4CCN(CC2)CC(=O)[O][Lu]([O]C(=O)C3)[O]C(=O)C4)N(C)C(=O)[C@H](Cc2ccccc2)NC1=O` [RB-0006075] (cyclo(F[NMehCys](DOTA(Lu)NH(CH2)6NHCOCH2)Y[dTrp(5-Cl)][Ala(piperidin-4-yl)]T)), the Ki at SSTR2 (read-out: SSTR2 Ki) lay within 1 to 3.33 nM.

Take `C[C@@H](O)[C@@H]1NC(=O)[C@H](CCCCN)NC(=O)[C@@H](Cc2c[nH]c3ccccc23)NC(=O)[C@H](Cc2ccc(O)cc2)NC(=O)[C@H](CC(=O)NCCCCCCNC(=O)CN2CCN3CCN4CCN(CC2)CC(=O)[O][Lu]([O]C(=O)C3)[O]C(=O)C4)N(C)C(=O)[C@H](Cc2ccccc2)NC1=O` [RB-0005895]: at SSTR2 (read-out: SSTR2 Ki), the Ki lay within 3.33 to 10 nM. On to `C[C@@H](O)[C@@H]1NC(=O)[C@H](CCCCN)NC(=O)[C@@H](Cc2c[nH]c3ccccc23)NC(=O)[C@H](Cc2ccc(O)cc2)NC(=O)[C@H](CC2CCN(C(=O)CCCCCNC(=O)CN3CCN4CCN5CCN(CC3)CC(=O)[O][Lu]([O]C(=O)C4)[O]C(=O)C5)CC2)N(C)C(=O)[C@H](Cc2ccccc2)NC1=O` [RB-0005854], for which the Ki at SSTR2 (read-out: SSTR2 Ki) lay in the range of 10 to 33.3 nM. Still for that read-out and setting: the same measure for `C[C@@H](O)[C@@H]1NC(=O)[C@H](CCCCN)NC(=O)[C@@H](Cc2c[nH]c3ccccc23)NC(=O)[C@H](Cc2ccncc2)NC(=O)[C@H](CCSCC(=O)NCCCCCCNC(=O)CN2CCN3CCN4CCN(CC2)CC(=O)[O][Lu]([O]C(=O)C3)[O]C(=O)C4)N(C)C(=O)[C@H](Cc2cccnc2)NC1=O` [RB-0003445] (cyclo([3Pal][NMehCys](DOTA(Lu)NH(CH2)6NHCOCH2)[4Pal][dW]KT)): 3.33 to 10 nM; for `C[C@@H](O)[C@@H]1NC(=O)[C@H](CC2CCNCC2)NC(=O)[C@@H]([C@@H](C)c2c[nH]c3ccccc23)NC(=O)[C@H](Cc2ccc(O)cc2)NC(=O)[C@H](CCCCCNC(=O)CN2CCN3CCN4CCN(CC2)CC(=O)[O][Lu]([O]C(=O)C3)[O]C(=O)C4)N(C)C(=O)[C@H](Cc2ccccc2)NC1=O` [RB-0006449] (cyclo(F[NMehLys](DOTA(Lu))Y[dTrp(βS-Me)][Ala(piperidin-4-yl)]T)): under 1 nM; for `CN1C(=O)[C@H](Cc2ccccc2)NC(=O)[C@H](C2CCC2)NC(=O)[C@H](CCCCN)NC(=O)[C@@H](Cc2c[nH]c3ccccc23)NC(=O)[C@H](Cc2ccc(O)cc2)NC(=O)[C@@H]1CCSCC(=O)NCCCCCCNC(=O)CN1CCN2CCN3CCN(CC1)CC(=O)[O][Lu]([O]C(=O)C2)[O]C(=O)C3` [RB-0004540] (cyclo(F[NMehCys](DOTA(Lu)NH(CH2)6NHCOCH2)Y[dW]K[Gly(cBu)])): under 1 nM. Still for that read-out and setting: the same measure for `C[C@@H](O)[C@@H]1NC(=O)[C@H](CCCCN)NC(=O)[C@@H]([C@@H](C)c2c[nH]c3ccccc23)NC(=O)[C@H](Cc2cccnc2)NC(=O)[C@H](CCSCC(=O)NCCCCCCNC(=O)CN2CCN3CCN4CCN(CC2)CC(=O)[O][Lu]([O]C(=O)C3)[O]C(=O)C4)N(C)C(=O)[C@H](Cc2ccccc2)NC1=O` [RB-0003382] (cyclo([3Pal][dTrp(βS-Me)]KTF[NMehCys](DOTA(Lu)NH(CH2)6NHCOCH2))): under 1 nM. On the same count and under the same terms, the same measure for `C[C@@H](O)[C@@H]1NC(=O)[C@H](CCCCN)NC(=O)[C@@H](Cc2c[nH]c3ccccc23)NC(=O)CNC(=O)[C@H](CCSCC(=O)NCCCCCCNC(=O)CN2CCN3CCN4CCN(CC2)CC(=O)[O][Lu]([O]C(=O)C3)[O]C(=O)C4)N(C)C(=O)[C@H](Cc2ccccc2)NC1=O` [RB-0005694] (cyclo(F[NMehCys](DOTA(Lu)NH(CH2)6NHCOCH2)G[dW]KT)): 1 to 3.33 nM.
